One data set concerns HEK-FAP cells. Briefly: Fluorescence microscopy of cellular internalization and retention in HEK-FAP cells. The note with it: 5 nM for 1 h at 37 °C, then compound-free medium up to 72 h. The format is cell-based, human. On the procedure:
HEK-FAP cells were seeded on chamber slides (ibidi) and incubated with 5 nM of AF488-labeled FAP-2286 or FAPI-46 for 1 h at 37 °C. Cells were then washed and further incubated for various timepoints. Cell nuclei were stained with 1 µg/mL Hoechst 33342 dye. Lysosomes were stained using LysoTracker Deep Red (Thermo Fisher Scientific). Images were acquired by using the BZ X800E fluorescence microscope (Keyence) at 40 × magnification.
For fluorescence microscopy assay, HEK-FAP cells were seeded in Poly-D-Lysine-coated 8-well chamber slides at 1 x 10^5 cells per well and incubated for 3 days at 37°C, 5% CO2 in a humified incubator. Attached cells were incubated for 1 hour with 5 nM AF488-labeled FAP-2286 or FAPI-46 in incubation buffer at 37°C. For visualization of lysosomes and late endosomes, cells were stained with LysoTracker DeepRed (Thermo Fisher) for 30 minutes at 37 °C.
Cells were washed three times and incubation buffer was added. Following various incubation periods, cells were washed with HBSS and incubated for 5 min with 1 µg/mL Hoechst 33342 dye for nuclei counterstaining at room temperature.
Fluorescence images were acquired by using a Keyence BZ-X800E fluorescence microscope with 40x magnification.

For another data set, the system named is HEK-FAP xenograft tumors. Briefly: SPECT/CT biodistribution of 111In-labeled tracers in HEK-FAP tumor-bearing mice. The note with it: every 24 h; HEK-FAP mouse tumor model; 111In-FAPI-04 (Supplementary Fig. S6). In kind it is in vivo, mouse. On the procedure:
(§1) HEK-FAP cell line was generated using the vector pTAR to insert FAP complementary DNA by recombinase-mediated cassette exchange into the pre-tagged HEK293 cells (InSCREENeX). For in vivo HEK-FAP studies, female nude or SCID beige mice (Charles River Laboratories) were subcutaneously implanted with 5 × 10^6 HEK-FAP cells in 150 µL serum-free media:Matrigel (1:1) (Corning). For the patient-derived xenograft (PDX) efficacy study, female NMRI nu/nu mice (Janvier Labs) were subcutaneously implanted with Sarc4809 fragments (Experimental Pharmacology & Oncology Berlin-Buch). All animal experiments were carried out under licenses approved by the respective authorities and in compliance with guidelines on animal welfare.
(§2) Thirty megabecquerels (30 MBq/nmol) ^111In-FAP-2286 (n = 9) or ^111In-FAPI-04 (n = 6) was injected intravenously (IV) into HEK-FAP tumor-bearing mice and the distribution of the radiotracers was assessed using the NanoSPECT/computed tomography (CT) system (Mediso). For PET imaging, 10 MBq of ^68Ga-FAP-2286 or ^68Ga-FAPI-46 (10 MBq/nmol) was given IV into HEK-FAP tumor-bearing mice (n = 3) followed by PET/CT analysis using the nanoScan PET/CT system (Mediso). For SPECT imaging of ^177Lu-labeled FAP-2286 or ^177Lu-labeled FAPI-46, 30 MBq was administered IV (30 MBq/nmol; n = 3) and the distribution of the radiotracers was assessed using the nanoScan SPECT/CT system (Mediso).
(§3) The animal studies were conducted in different laboratories. ^111In-Imaging and efficacy studies using the HEK-FAP model and different doses of ^177Lu-FAP-2286 as well as the Sarc4809 PDX efficacy study took place at Berlin Experimental Imaging Center (BERIC, Germany). The Sarc4809 model was originally derived from a primary lesion of undifferentiated pleomorphic sarcoma. These studies were performed in either female swiss nude (Charles River Laboratories, France – ^111In-Imaging), NMRI nude (Janvier Labs, France – PDX efficacy study) or SCID beige mice (Charles River Laboratories, Germany - ^111In-Imaging). ^68Ga-Imaging and comparative studies with ^177Lu labeled FAP-2286 and FAPI-46 were performed at Minerva Imaging ApS, Denmark using female athymic nude mice (Charles River Laboratories, Germany). For all experiments animals were ordered with an age of approximately 6 weeks. Animals were allowed an acclimatization period of at least one week prior to inoculation. Animals were housed in an animal room with 12 hours light and 12 hours darkness with free access to food and water. A maximum number of 5 animals were housed in the same cage, cages were equipped with nesting material and plastic or paper houses for hiding. Each cage was labeled with study ID, group and animal numbers and test compound. For efficacy studies animals were randomized according to tumor size. Animals were checked daily for any signs of illness or abnormal behavior. Main humane endpoints were defined as tumor volumes > 1500 mm^3, tumor burden > 10% of animal weight, body weight loss >15% and tumor ulceration. When reaching one of these criteria the animal was sacrificed by cervical dislocation. All animal experiments were approved either by the Regional Office for Health and Social Affairs Berlin (LAGeSo), Germany or the National Animal Experiments Inspectorate under the Ministry of Environment and Food of Denmark.
(§4) Imaging and image analysis were performed as described. During the scan, mice were kept under isoflurane anesthesia, and body temperature was maintained under warm air. The following acquisition parameters were used for the respective imaging modality.
(§5) For quantification, VivoQuant (InviCRO) was used to draw regions of interest (ROIs) in relevant tissues, with a ROI drawn over the left ventricle of the heart to serve as blood pool surrogate. […]

The nature of data set [1]: SPECT/CT biodistribution and tumor dosimetry of 177Lu-labeled tracers in HEK-FAP tumor-bearing mice. The note with it: mouse, in vivo, iv, 30 MBq IV, HEK-FAP mice; for tissue uptake at 72 h: 72 h p.i. The format is in vivo, mouse. As for the experimental part: as §1, §2, §3, §4, §5
The test system of a further data set is HEK-FAP xenografts. The description is as above. The format is in vivo, mouse. On the procedure:
as §1, §2, §3, §4, §5

Another data set deals with Sarc4809 PDX. As to the kind of experiment: Efficacy study in the Sarc4809 sarcoma PDX model. In kind it is in vivo, mouse. The note with it: 30 MBq single IV dose, Sarc4809 mice. As for the experimental part: as §1
A single dose of the indicated treatments was administered IV on day 0, with vehicle (saline), nonradioactive ^natLu-FAP-2286, 30 or 60 MBq ^177Lu-FAP-2286 (30 MBq/nmol and 60 MBq/nmol, respectively), or 30 MBq ^177Lu-FAPI-46 (30 MBq/nmol). Tumor length and width were measured by caliper, and tumor volume was calculated as 0.5 × (length × width^2). Tumor growth and body weight were monitored 3 times weekly. […]
Calculation of relative tumor volume. Relative tumor volume (RTV as %) is calculated according to the following formula: RTV = (Tᵢ/ T0) × 100, where Tᵢ is the tumor volume at day i and T0 is the tumor volume at day 0. […]

In a further data set the test system is neoplastic lesions. Also on record: method as in PMID 34168013. The note with it: first-in-human experience of 11 patients ref 51; cited from earlier work.

SMILES strings stand for the structures. Where two headings read alike, the source gives them in different places. Some results are limits rather than exact numbers.

Consider `CCCCCC(=O)N[C@H]1CSCc2cc(CSCCNC(=O)CN3CCN(CC(=O)O)CCN(CC(=O)O)CCN(CC(=O)O)CC3)cc(c2)CSC[C@@H](C(=O)N[C@@H](CCCCNC(=O)c2ccc(-c3c4ccc(=N)c(S(=O)(=O)O)c-4oc4c(S(=O)(=O)O)c(N)ccc34)c(C(=O)O)c2)C(N)=O)NC(=O)[C@H](Cc2ccccc2)NC(=O)[C@H](CCC(N)=O)NC(=O)[C@H]([C@@H](C)O)NC(=O)[C@@H]2CCCN2C(=O)[C@@H]2CCCN2C1=O` [AF488-FAP-2286], for which, in the data set with HEK-FAP cells, the “cellular retention by fluorescence microscopy” value was “retained in HEK-FAP cells and secluded in endosomes out to 72 h”.

With `N#C[C@@H]1CC(F)(F)CN1C(=O)CNC(=O)c1ccnc2ccc(OCCCN3CCN(C(=O)CN4CCN(CC(=O)O)CCN(CC(=O)O)CCN(CC(=O)O)CC4)CC3)cc12` [FAPI-04, reference compound], the tumor clearance rate result in the data set on HEK-FAP xenograft tumors is “approximately 50%”.

As for `CCCCCC(=O)N[C@H]1CSCc2cc(CSCCNC(=O)CN3CCN(CC(=O)O)CCN(CC(=O)O)CCN(CC(=O)O)CC3)cc(c2)CSC[C@@H](C(=O)O)NC(=O)[C@H](Cc2ccccc2)NC(=O)[C@H](CCC(N)=O)NC(=O)[C@H]([C@@H](C)O)NC(=O)[C@@H]2CCCN2C(=O)[C@@H]2CCCN2C1=O` [^177Lu-FAP-2286, metal not drawn], the tissue uptake at 3 h in data set [1] (3 h after injection, read-out: kidney accumulation) is 2.2 %ID/g; in data set [1] (3 h p.i., n=3, read-out: tumor uptake), 21.1 %ID/g. Moreover, the tissue uptake at 72 h in data set [1] (n=3, read-out: tumor uptake) stood at 16.4 %ID/g; in data set [1] (read-out: kidney accumulation) it was 0.6 %ID/g. In addition, the tumor retention in the data set with HEK-FAP xenografts (HEK-FAP mouse model, SPECT/CT image quantification) was at least 72 h. In the data set with HEK-FAP xenografts (HEK-FAP tumor self-dose), this molecule registered a tumor absorbed dose of 2.8 Gy/MBq. Also, in the data set on HEK-FAP xenografts (HEK-FAP tumor, calculated from SPECT/CT, extrapolated beyond 72 h), the “time-integrated activity coefficient (TIAC), tumor” value was 11.2 MBq*h/MBq. In addition, the “Max. BWL, Day 2” value in the data set with Sarc4809 PDX was determined as 3%. Moreover, in the data set with neoplastic lesions, the “SPECT/CT biodistribution in patients” value was “significant tumor uptake and long retention”.

The values are drawn from paper PMC9399058, “Preclinical evaluation of FAP-2286 for fibroblast activation protein targeted radionuclide imaging and therapy” (European Journal of Nuclear Medicine and Molecular Imaging, 2022).
